Assay results: patent US8318731B2, “Pyrrolopyrimidines” (Janssen Pharmaceutica NV, priority 2007, dated 2012)

Key:
U87-MG = assay: Cellular proliferation assay (Alamar blue), U87-MG; assay type: cell-based; settings: Homo sapiens, U-87 MG; U87-MG cells; 10% FCS; 72 h with compound; Alamar blue 6 h; read-out: pIC50 U87MG (converted)
Summary of the method: (§1)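 Resazurin-based Alamar blue fluorescence (544/590 nm) measured viable cell number after 72 h compound exposure, following 24 h compound-free seeding, with 10% FCS, 37° C, 5% CO2. Dye incubation lasted 24 h for PC3 and A2780, 6 h for U87-MG, 4 h for HCT-116; results relative to untreated controls.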

MDA-MB-231 = assay: Cellular proliferation assay (Alamar blue), MDA-MB-231; assay type: cell-based; settings: Homo sapiens, MDA-MB-231, MDA-MB-231 cells; 10% FCS; 72 h with compound; Alamar blue 24 h; read-out: pIC50 MDA/MB231 (converted)
Summary of the method: (§2)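 Viable cell number is determined by Alamar blue conversion after cells are treated with compound for 72 hours, following 24 hours of growth without compound in 10% FCS. The effect is calculated against control cells.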

PC3 = assay: Cellular proliferation assay (Alamar blue), PC3; assay type: cell-based; settings: Homo sapiens, PC-3, PC-3 cells; 10% FCS; 72 h with compound; Alamar blue 24 h; read-out: pIC50 PC-3 (converted)
Summary of the method: as §1

PLK4 (h) = target: T1, PLK4 (h) (Homo sapiens, UniProt O00444); assay: PLK-4 human kinase scintillation proximity assay (SPA); assay type: biochemical; settings: 1 μM ATP, 60 minutes at r.t., read-out: PLK4 pIC50 (converted)
T1 sequence (O00444 1-970): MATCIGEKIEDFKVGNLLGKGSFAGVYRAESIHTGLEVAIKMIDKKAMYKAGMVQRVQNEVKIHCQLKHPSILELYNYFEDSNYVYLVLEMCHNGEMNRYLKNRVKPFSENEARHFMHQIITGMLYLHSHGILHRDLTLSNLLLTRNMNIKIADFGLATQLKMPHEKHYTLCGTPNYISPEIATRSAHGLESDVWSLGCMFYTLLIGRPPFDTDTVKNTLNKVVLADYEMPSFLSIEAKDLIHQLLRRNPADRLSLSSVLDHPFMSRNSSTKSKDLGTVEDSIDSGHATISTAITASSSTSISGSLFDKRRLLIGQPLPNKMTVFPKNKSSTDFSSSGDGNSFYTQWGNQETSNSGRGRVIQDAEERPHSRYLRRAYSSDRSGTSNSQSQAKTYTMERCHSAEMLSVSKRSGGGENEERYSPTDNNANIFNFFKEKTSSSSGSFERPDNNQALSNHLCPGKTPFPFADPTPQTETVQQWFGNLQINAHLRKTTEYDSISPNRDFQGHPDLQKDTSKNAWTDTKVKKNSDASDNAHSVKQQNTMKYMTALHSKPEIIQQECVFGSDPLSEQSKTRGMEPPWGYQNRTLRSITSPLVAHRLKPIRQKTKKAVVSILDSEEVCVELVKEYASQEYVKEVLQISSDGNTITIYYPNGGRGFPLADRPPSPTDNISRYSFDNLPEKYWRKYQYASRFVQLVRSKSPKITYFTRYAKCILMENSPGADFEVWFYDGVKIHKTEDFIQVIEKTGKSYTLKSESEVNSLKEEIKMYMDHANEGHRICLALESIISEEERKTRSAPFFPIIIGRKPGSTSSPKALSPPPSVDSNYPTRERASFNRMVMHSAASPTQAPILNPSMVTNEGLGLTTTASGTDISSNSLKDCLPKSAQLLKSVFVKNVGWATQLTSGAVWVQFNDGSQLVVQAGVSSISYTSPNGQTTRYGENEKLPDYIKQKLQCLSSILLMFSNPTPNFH
Summary of the method: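 Scintillation proximity read-out: EDTA-stopped reactions were captured on streptavidin SPA beads after PLK4 (19 μg/ml) had phosphorylated 10 μM biotin-peptide for 60 min at room temperature, using 1 μM ATP spiked with 2 nM 33P-ATP in pH 8.0 HEPES buffer.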

H1299 = assay: Cellular proliferation assay (Alamar blue), H1299; assay type: cell-based; settings: Homo sapiens, NCI-H1299, H1299 cells; 10% FCS; 72 h with compound; Alamar blue 4 h; read-out: pIC50 H1299 (converted)
Summary of the method: as §2

HCT-116 = assay: Cellular proliferation assay (Alamar blue), HCT-116; assay type: cell-based; settings: Homo sapiens; HCT-116 cells; 10% FCS; 72 h with compound; Alamar blue 4 h; read-out: pIC50 HCT-116 (converted)
Summary of the method: as §1

A2780 = assay: Cellular proliferation assay (Alamar blue), A2780; assay type: cell-based; settings: Homo sapiens, A2780, A2780 cells; 10% FCS; 72 h with compound; Alamar blue 24 h; read-out: pIC50 A2780 (converted)
Summary of the method: as §1

Row | IC50 (U87-MG) [nM] | IC50 (MDA-MB-231) [nM] | IC50 (PC3) [nM] | IC50 (PLK4 (h)) [nM] | IC50 (H1299) [nM] | melting point [°C] | IC50 (HCT-116) [nM] | IC50 (A2780) [nM] | Compound
1 | 1580 | 2510 | 3980 | 25.1 | 501 | 237.8 | 100 | 79.4 | CCOCCOc1ccc2cc1OCC(=O)N(C)CCCN(C)Cc1c[nH]c3ncnc(c13)N2 [Compound 70]
2 | 501 | 2000 | > 10000 | 79.4 | 631 | 221 | 251 | 200 | CCOCCOc1ccc2cc1OCC(=O)N(C)CCCN(C)Cc1cn(C)c3ncnc(c13)N2 [Compound 81]
3 | 1260 | 1580 | 2000 | 39.8 | 1000 | 267.9 | 501 | 631 | COc1ccc2cc1OCC(=O)N(C)CCCN(C)Cc1c[nH]c3ncnc(c13)N2 [Compound 7]
4 | 3160 | 5010 | 3980 | 100 | 794 | 269.3 | 251 | 200 | CN1CCCN(C)C(=O)COc2cc(ccc2OCCNc2ccc(Cl)cc2)Nc2ncnc3[nH]cc(c23)C1 [Compound 79]
5 | > 10000 | > 10000 | > 10000 | 39.8 | > 10000 | 237.4 | 794 | 631 | CCOCCOc1ccc2cc1OCC(=O)N(C)CCCNCc1c[nH]c3ncnc(c13)N2 [Compound 75]
6 | 3980 | 6310 | 5010 | 50.1 | 2510 | 222.2 | 1260 | 1260 | COc1ccc(OCCCOc2ccc3cc2OCC(=O)N(C)CCCN(C)Cc2c[nH]c4ncnc(c24)N3)cc1 [Compound 78]

Row | Compound | IC50 (U87-MG) [nM] | IC50 (MDA-MB-231) [nM] | IC50 (PC3) [nM] | IC50 (PLK4 (h)) [nM] | IC50 (H1299) [nM] | melting point [°C] | IC50 (HCT-116) [nM] | IC50 (A2780) [nM]
7 | COc1ccc2cc1OCC(=O)N(C)CCN(C)Cc1c[nH]c3ncnc(c13)N2 [Compound 10] | > 10000 | > 10000 | > 10000 | 126 | > 10000 | 249.3 | > 10000 | > 10000
